Earlier results on eleven molecules are cited in patent US6344218B1, “Skin deodorizing and santizing compositions” (The Procter & Gamble Company, priority 1998, dated 2002).

Counter-ions that a name gives are not always drawn.

Regarding `[Na+].[O-][n+]1ccccc1[S-]` [sodium pyrithione], the solubility in water entry is reported as “about 50%”. As to `O=[N+]([O-])C1(Br)COCOC1` [Bronidox L, 5-bromo-5-nitro-1,3-dioxane], the solubility in water entry was “about 0.46%”. Regarding `CC1(C)C(=O)N(CO)C(=O)N1CO` [DMDM hydantoin, 1,3-bis(hydroxymethyl)-5,5-dimethyl-2,4-imidazolidinedione], the solubility in water entry was “more than 50%”. Take `[H]/N=C(\N/C(=N/[H])NCCCCCCNC(=N)NC(=N)Nc1ccc(Cl)cc1)Nc1ccc(Cl)cc1` [digluconate salt, 1,1′-hexamethylene bis(5-(p-chlorophenyl)biguanide), reference compound]: the solubility in water result is reported as “about 70%”. In the case of `ClC=CC[N+]12CN3CN(CN(C3)C1)C2.[Cl-]` [Dowicil 200, 1-(3-Chlorallyl)-3,5,7-triaza-1-azoniaadamantane chloride], the “solubility in water” value is “freely soluble in water”.

As for `OCCc1ccccc1` [2-phenylethanol], the solubility in water result was “about 2%”.

In the case of `OCCOc1ccccc1` [2-phenoxyethanol], the solubility in water entry is given as “about 2.67%”. In the case of `OCc1ccccc1` [benzyl alcohol], the solubility in water entry is “about 4%”. `CC(C)(O)C(Cl)(Cl)Cl` [chlorobutanol, 1,1,1-Trichloro-2-methylpropan-2-ol]: the solubility in water result is listed as “about 0.8%”.

With `[H]/N=C(\N/C(=N/[H])NCCCCCCNC(=N)NC(=N)Nc1ccc(Cl)cc1)Nc1ccc(Cl)cc1` [diacetate salt, 1,1′-hexamethylene bis(5-(p-chlorophenyl)biguanide), reference compound], the solubility in water result is reported as “about 1.8%”. Regarding `O=[N+]([O-])C(Br)(CO)CO` [Bronopol, 2-bromo-2-nitropropane-1,3-diol], the solubility in water entry is “about 25%”.
